For the test, the system named is GDF8 signaling (p-SMAD-3 (Ser423/425)). Description: AlphaScreen SureFire SMAD3 (p-Ser423/425) assay, GDF8-stimulated cells (GDF pSMAD). Format: cell-based. Particulars: GDF8-stimulated, p-SMAD3 AlphaScreen, read-out: GDF pSMAD (MPC11) (inhibition of GDF8 signaling). From the text: Biological Example 1: AlphaScreen® SureFire® SMAD3 (p-Ser423/425) Assay
The p-SMAD-3 (Ser423/425) SureFire® assay has been designed to measure the phosphorylation of endogenous cellular p-SMAD-3 (Ser423/425) in cell lysates and is a system for the screening of both modulators of receptor activation (e.g. agonists and antagonists) as well as agents acting intracellularly, such as small molecule inhibitors of upstream events. The assay will measure p-SMAD-3 (Ser423/425) activation by either cloned or endogenous receptors, and can be applied to primary cells.
P-SMAD-3 (Ser423/425) SureFire® Assay Protocols
Step A: Preparation of Buffers
1× Lysis buffer: 1 ml of 5× Lysis buffer was diluted with 4 ml of sterile water. After dilution, excess 1× Lysis buffer can be frozen and thawed up to 5 times without loss in activity.
Activation buffer: The buffer was warmed slowly to 37° C. and gently mixed to re-suspend. Activation buffer can be stored at room temperature with no loss in activity.
Reaction buffer: The buffer was kept at 4° C. while in use.
AlphaScreen® Protein A IgG Kit: The kit was stored at 4° C. in the dark.
Reaction buffer+Activation buffer+AlphaScreen® Acceptor beads: Reaction buffer (40 parts), Activation Buffer (10 parts) and Acceptor beads (1 part) were mixed and the mixture was stored at room temperature and used the same day. Mixture was added to 384-well plates; excess mixture was discarded.
Dilution buffer+AlphaScreen® Donor beads: Dilution buffer (20 parts) and Donor beads (1 part) were mixed and the mixture was stored at room temperature and used the same day. Excess mixture was discarded.
Assay control samples: After reconstitution in 250 μl of water, lysates were at −20° C. in single use aliquots.
Step B: Preparation of Samples and Cells
96-well Assay Protocol for 293FT and RMS13 adherent cells can be carried out manually or in high throughput with liquid handling robots.
The cells (80 μL of cells for 96 well plates) were plated in collagen coated tissue culture plates in RPMI or FreeStyle medium (Invitrogen) and incubated overnight. For manual analysis, 6 plates for GDF8, 6 plates for TGFβ, and optionally 6 plates for AlkSca(ALK5 constitutively active) were used.
The compound dilution plates were prepared as follows: 12 μL of DMSO was transferred into first column of 96-well plate, and 16 μL of DMSO was transferred into columns 2-12 of the 96-well plate. 12 μL of compound solution was transferred into first column of the DMSO-containing 96-well plate. Three-fold dilution was performed up to column 10 of the DMSO-containing 96-well plate.
Step C: Treatment and Analysis
The plate containing cells were treated with compounds for about 10 minutes, and then ligand was added. GDF8 or TGFb was added to plates to stimulate. 293FL cells were stimulated for 90 minutes at 37° C.; and RMS13 cells were stimulated for 60 minutes at 37° C. The medium was then removed from the cells, and 1× Lysis Buffer (about 25 μL) was added and the plate was gently agitated on plate shaker for 5-10 minutes.
The lysate (5 μL) was then placed into 384-well shallow plates avoiding the generation of bubbles. To this, the Reaction Buffer+Activation Buffer+AlphaScreen® Acceptor beads mixture (5 μL) was added. The plate was sealed with adhesive cover and shielded from light (e.g., with metal foil), and agitated gently on plate shaker for 2 hours at room temperature.
Dilution buffer+AlphaScreen® Donor beads (2 μL) was then added, and the plate was intubated on the plate shaker for an additional 1½ hours. After completion, the plate was read on Synergy-4 or Enspire plate reader, using AlphaScreen® pSMAD3® settings.
Representative results for inhibition of GDF8 signaling are shown in Table 2(data=GDF pSMAD (MPC11) (μM)): […]

pIC50: −log10 of the molar value. Like-named read-outs stand apart in the source and are kept apart here.

Consider `Cc1cc(-c2ncccc2-c2ccc3ncn(CCCN4CCN(C)CC4)c3c2)ccc1F` [Compound 40, 6-(2-(4-Fluoro-3-methylphenyl)pyridin-3-yl)-1-(3-(4-methylpiperazin-1-yl)propyl)-1H-benzo[d]imidazole], for which the pIC50 (MPC11) was 4.73.
As for `Cc1cc(-c2ncccc2-c2ccc3ncn(CCCO)c3c2)ccc1F` [Compound 41, 3-(6-(2-(4-Fluoro-3-methylphenyl)pyridin-3-yl)-1H-benzo[d]imidazol-1-yl)propan-1-ol], the pIC50 (Mus musculus, MPC-11, MPC11) is 5.50.
Same read-out and setting: as for `CCOCCCn1cnc2ccc(-c3cccnc3-c3ccc(F)c(C)c3)cc21` [Compound 42, 1-(3-Ethoxypropyl)-6-(2-(4-fluoro-3-methylphenyl)pyridin-3-yl)-1H-benzo[d]imidazole], the figure is 4.98.
Same read-out and setting: as for `CCn1cnc2ccc(-c3cccnc3-c3cccc(C)c3)cc21` [Compound 43, 1-Ethyl-6-(2-m-tolylpyridin-3-yl)-1H-benzo[d]imidazole], the figure is 5.79; as for `CCn1cnc2ccc(-c3cccnc3-c3ccc(F)c(C)c3)cc21` [Compound 46, 1-Ethyl-6-(2-(4-fluoro-3-methylphenyl)pyridin-3-yl)-1H-benzo[d]imidazole], 5.76; as for `Cc1cc(-c2ncccc2-c2ccc3ncn(C(C)C)c3c2)ccc1F` [Compound 48, 6-(2-(4-Fluoro-3-methylphenyl)pyridin-3-yl)-1-isopropyl-1H-benzo[d]imidazole], 5.08.
For the compound `N#Cc1cccc(-c2ncccc2-c2ccc3nccn3c2)c1` [Compound 51, 3-(3-(Imidazo[1,2-a]pyridin-6-yl)pyridin-2-yl)benzonitrile], the pIC50 (Mus musculus, MPC-11, MPC11) was 5.26.
As for `COc1cccc(-c2ncccc2-c2ccc3nccn3c2)c1` [Compound 52, 6-(2-(3-Methoxyphenyl)pyridin-3-yl)imidazo[1,2-a]pyridine], the pIC50 (Mus musculus, MPC-11, MPC11) was 5.85.
Still for that read-out and setting: as for `Fc1ccc(-c2ncccc2-c2ccc3nccn3c2)cc1` [Compound 53, 6-(2-(4-Fluorophenyl)pyridin-3-yl)imidazo[1,2-a]pyridine], the figure is 4.87.
Still for that read-out and setting: the result for `Fc1ccccc1-c1ncccc1-c1ccc2[nH]ncc2c1` [Compound 61, 5-(2-(2-Fluorophenyl)pyridin-3-yl)-1H-indazole] reads 5.41.
On the same count and under the same terms, the result for `Fc1ccc(-c2ncccc2-c2ccc3[nH]ncc3c2)cc1F` [Compound 62, 5-(2-(3,4-Difluorophenyl)pyridin-3-yl)-1H-indazole] reads 6.09; that for `Cc1cc(-c2ncccc2-c2ccc3[nH]ncc3c2)ccc1F` [Compound 63, 5-(2-(4-Fluoro-3-methylphenyl)pyridin-3-yl)-1H-indazole], 6.85; that for `c1cnc(-c2ccc3[nH]ncc3c2)c(-c2ccc3[nH]ncc3c2)c1` [Compound 64, 5-(3-(1H-Indazol-5-yl)pyridin-2-yl)-1H-indazole], 6.08.
Consider `Fc1cccc(-c2ncccc2-c2ccc3[nH]ncc3c2)c1` [Compound 65, 5-[2-(3-Fluorophenyl)pyridin-3-yl]-1H-indazole], for which the pIC50 (Mus musculus, MPC-11, MPC11) is 5.65.
Consider `Fc1ccc(-c2ncccc2-c2ccc3[nH]ncc3c2)cc1` [Compound 66, 5-[2-(4-Fluorophenyl)pyridin-3-yl]-1H-indazole], for which, for the setting “Mus musculus, MPC-11, MPC11”, the pIC50 was 5.75.
Take `Fc1cc(F)cc(-c2ncccc2-c2ccc3[nH]ncc3c2)c1` [Compound 67, 5-[2-(3,5-Difluorophenyl)pyridin-3-yl]-1H-indazole]: the pIC50 (Mus musculus, MPC-11, MPC11) was 5.74.
Still for that read-out and setting: the result for `Cc1cccc(-c2ncccc2-c2ccc3[nH]ncc3c2)c1` [Compound 68, 5-(2-m-Tolylpyridin-3-yl)-1H-indazole] reads 6.73.
On the same count and under the same terms, as for `Fc1ccc(-c2ncccc2-c2ccc3[nH]ncc3c2)c(F)c1` [Compound 70, 5-[2-(2,4-Difluorophenyl)pyridin-3-yl]-1H-indazole], the figure is 5.24.
With `Cc1cc(C)cc(-c2ncccc2-c2ccc3[nH]ncc3c2)c1` [Compound 71, 5-[2-(3,5-Dimethylphenyl)pyridin-3-yl]-1H-indazole], for the setting “Mus musculus, MPC-11, MPC11”, the pIC50 is 5.15.
On the same count and under the same terms, the result for `Cc1ccc(F)c(-c2ncccc2-c2ccc3[nH]ncc3c2)c1` [Compound 73, 5-(2-(2-Fluoro-5-methylphenyl)pyridin-3-yl)-1H-indazole] reads 6.30; that for `Nc1cccc(-c2ncccc2-c2ccc3[nH]ncc3c2)c1` [Compound 75, 5-(2-(3-Aminophenyl)pyridin-3-yl)-1H-indazole], 5.46.
On the same count and under the same terms, as for `CS(=O)(=O)Nc1cccc(-c2ncccc2-c2ccc3[nH]ncc3c2)c1` [Compound 76, 5-(2-(3-Methylsulfphonylaminophenyl)pyridin-3-yl)-1H-indazole], the figure is 5.74; as for `Fc1ccc(-c2ncccc2-c2cnc3[nH]ncc3c2)cc1F` [Compound 77, 5-(2-(3,4-Difluorophenyl)pyridin-3-yl)-1H-pyrazolo[3,4-b]pyridine], 5.44.
On the same count and under the same terms, the result for `Cc1cc(-c2ncccc2-c2cnc3[nH]ncc3c2)ccc1F` [Compound 78, 5-(2-(4-Fluoro-3-methylphenyl)pyridin-3-yl)-1H-pyrazolo[3,4-b]pyridine] reads 6.50; that for `Cc1cccc(-c2ncccc2-c2cnc3[nH]ncc3c2)c1` [Compound 79, 5-(2-m-Tolylpyridin-3-yl)-1H-pyrazolo[3,4-b]pyridine], 6.58.
As to `Fc1ccc(-c2ncccc2-c2cnc3[nH]ncc3c2)cc1` [Compound 80, 5-(2-(4-Fluorophenyl)pyridin-3-yl)-1H-pyrazolo[3,4-b]pyridine], the pIC50 (Mus musculus, MPC-11, MPC11) was 5.20.
The same measure, in the same setting: the result for `OCc1cc(-c2ncccc2-c2ccc3[nH]ncc3c2)ccc1F` [Compound 89, (5-(3-(1H-Indazol-5-yl)pyridin-2-yl)-2-fluorophenyl)methanol] reads 5.59; that for `Cc1cc(-c2ncccc2-c2ccc3[nH]ncc3c2)ccc1N` [Compound 90, 4-(3-(1H-Indazol-5-yl)pyridin-2-yl)-2-methylbenzenamine], 5.58.
Still for that read-out and setting: the result for `OCc1cccc(-c2ncccc2-c2ccc3[nH]ncc3c2)c1` [Compound 91, [3-(3-(1H-Indazol-5-yl)pyridin-2-yl)phenyl]methanol] reads 5.52; that for `Fc1ccc(-c2ncccc2-c2ccc3[nH]ncc3c2)cc1C(F)(F)F` [Compound 93, 5-(2-(4-Fluoro-3-(trifluoromethyl)phenyl)pyridin-3-yl)-1H-indazole], 5.32; that for `Fc1ccc(-c2ncccc2-c2ccc3cn[nH]c3c2)cc1F` [Compound 98, 6-(2-(3,4-Difluorophenyl)pyridin-3-yl)-1H-indazole], 4.99.
On the same count and under the same terms, as for `Cc1cc(-c2ncccc2-c2ccc3cn[nH]c3c2)ccc1F` [Compound 99, 6-(2-(4-Fluoro-3-methylphenyl)pyridin-3-yl)-1H-indazole], the figure is 6.05; as for `Fc1cccc(-c2ncccc2-c2ccc3cn[nH]c3c2)c1` [Compound 100, 6-(2-(3-Fluorophenyl)pyridin-3-yl)-1H-indazole], 5.22.
With `Fc1ccc(-c2ncccc2-c2ccc3cn[nH]c3c2)cc1` [Compound 101, 6-(2-(4-Fluorophenyl)pyridin-3-yl)-1H-indazole], the pIC50 (Mus musculus, MPC-11, MPC11) is 4.95.
On the same count and under the same terms, the result for `Cc1cccc(-c2ncccc2-c2ccc3cn[nH]c3c2)c1` [Compound 102, 6-(2-m-Tolylpyridin-3-yl)-1H-indazole] reads 6.47; that for `Cc1cccc(-c2ncccc2-c2ccc3c(c2)OCO3)c1` [Compound 109, 3-(Benzo[d][1,3]dioxol-6-yl)-2-m-tolylpyridine], 4.76.

Source of the values: US10858335B2 (Rigel Pharmaceuticals, Inc., priority 2014, dated 2020).
